According to patent publication US7446199B2, “Compositions useful as inhibitors of protein kinases” (Vertex Pharmaceuticals Incorporated, priority 2003, dated 2008):

Assays:
SYK = SYK (Homo sapiens, UniProt P43405); assay: SYK enzyme assay, coupled enzyme assay; format: biochemical; conditions: 200 μM ATP, 4 μM poly Gly-Tyr peptide, 30° C.
How it was run: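 Pyruvate kinase/lactate dehydrogenase-coupled NADH assay in HEPES pH 7.5 with MgCl2, NaCl, DTT and 1.5% DMSO, using 200 μM ATP, 4 μM poly Gly-Tyr and 25 nM enzyme. Compound at 30 μM final was preincubated ~10 min at 30 °C. Rates were read over 5 min at 30 °C and Ki derived.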

TAK1A-TAB fusion protein = target: T1, TAK1A-TAB fusion protein (Homo sapiens, UniProt O43318); assay: TAK-1 inhibition assay, radiometric filter binding assay; format: biochemical; conditions: 50 μM ATP, 12 μM bovine myelin basic protein, 20 nM TAK1A-TAB fusion protein
T1 construct: using 20 nM TAK1A-TAB fusion protein
T1 sequence (O43318 with tags, fused parts or gaps isoform O43318-2 limits assumed): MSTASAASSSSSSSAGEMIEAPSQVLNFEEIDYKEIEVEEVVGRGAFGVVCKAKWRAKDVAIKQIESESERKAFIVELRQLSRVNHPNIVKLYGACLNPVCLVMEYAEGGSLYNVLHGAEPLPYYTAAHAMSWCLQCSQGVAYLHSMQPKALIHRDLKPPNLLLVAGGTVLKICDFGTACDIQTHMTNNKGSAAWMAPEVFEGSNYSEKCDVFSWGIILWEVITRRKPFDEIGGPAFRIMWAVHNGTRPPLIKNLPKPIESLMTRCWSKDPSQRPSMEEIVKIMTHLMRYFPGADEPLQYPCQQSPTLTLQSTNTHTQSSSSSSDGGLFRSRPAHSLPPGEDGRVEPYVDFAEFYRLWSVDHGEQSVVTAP
Protocol: Compounds were screened for their ability to inhibit TAK1A kinase activity using a radiometric filter binding assay. Reactions were carried out in a solution containing Buffer A (100 mM HEPES (pH 7.5), 10 mM MgCl2), 25 mM NaCl, 2 mM DTT, and 1.5% DMSO. Final substrate concentrations in the assay were 50 μM ATP (a mixture of unlabeled ATP (Sigma Chemicals, St Louis, Mo.) and ^33P-labeled ATP (PerkinElmer Life Sciences, Boston, Mass.) for a final specific activity of 50 Ci/mol), and 12 μM bovine myelin basic protein (MBP, Vertex Pharmaceuticals, Cambridge, Mass.). Reactions were carried out at ambient temperature (˜20° C.) using 20 nM TAK1A-TAB fusion protein. Under these conditions the extent of reaction is linear with time for a period of 2 hours.
A test compound of the present invention (1 μL in DMSO) was combined with ATP and Buffer A in a final volume of 47 μL in a 96 well plate. Typically, a 6 point titration was conducted by preparing serial dilutions (from 10 mM compound stocks) with DMSO of the test compounds of the present invention in daughter plates, for final concentrations spanning 0.046 μM to 3.73 μM. The reaction was initiated by the addition of 20 μl of an enzyme stock solution consisting of TAK1A-TAB fusion (described by Sugita, T. et al. in Biochem. Biophys. Res. Comm. 2002, 297, 1277-1281), MBP, Buffer A, NaCl, and DTT. The reaction was allowed to proceed for two hours at ambient temperature, then quenched with an equal volume of 10 mM unlabeled ATP in 10% trichloroacetic acid. A 110 μL aliquot of the quenched reaction was transferred to a Multiscreen PH filter plate (Millipore, Billerica, Mass.) and allowed to incubate at ambient temperature overnight (typically 16-20 hours). Following incubation the filter plates were washed with 3×150 μL aliquots of 5% trichloroacetic acid using a modified Biotek Elx405 plate washer. A 70 μL aliquot of Microscint 20 scintillation fluid (PerkinElmer) was added to each well, and the plate was then sealed and read on a TopCount NXT microplate scintillation counter (PerkinElmer). The Ki values were determined from the rate data as a function of inhibitor concentration.

Ki (SYK): 200 to 1000 nM
Ki (TAK1A-TAB fusion protein): 200 to 1000 nM
Structure (SMILES): Clc1cccc(-c2cnoc2-c2c[nH]c3ncc(-c4cccnc4)cc23)c1Cl [Compound 99, 3-[4-(2,3-Dichloro-phenyl)-isoxazol-5-yl]-5-pyridin-3-yl-1H-pyrrolo[2,3-b]pyridine]
